Measured values from ChEMBL document CHEMBL1155776, “Effect of fluoroquinolone treatment on growth of and toxin production by epidemic and nonepidemic clostridium difficile strains in the cecal contents of mice” (Antimicrob Agents Chemother, 2007).
In brackets after ≈: the same amount, converted by molar mass. Activity calls are given as the source filed them. The calls are words filed in the database; no cut-off is given here.

Columns and labels:
[1] = tested on: Clostridioides difficile; test: Increase in toxin level in nonepidemic Clostridium difficile ATCC 9689 infected in CF1 mouse at 1.4 mg/day, sc for 4 days assessed after 2 days of last treatment; format: functional, organism-based
[2] = tested on: Clostridioides difficile; test: Inhibition of clindamycin-susceptible nonepidemic Clostridium difficile strain6 in CF1 mouse at 0.2 mg/day, sc for 5 days; format: functional, organism-based
[3] = tested on: Clostridioides difficile; test: Increase in toxin level in epidemic Clostridium difficile BI9 infected CF1 mouse at 2 mg/day, sc for 4 days assessed after 2 days of last treatment; format: functional, organism-based
[4] = tested on: Clostridioides difficile; test: Effect on growth of nonepidemic Clostridium difficile ATCC 9689 in CF1 mouse assessed as increase in bacterial density in cecal content at 1.4 mg/day, sc for 4 days assessed after 2 days of last treatment; format: functional, organism-based
[5] = tested on: Clostridioides difficile; test: Inhibition of clindamycin-susceptible nonepidemic Clostridium difficile strain6 in CF1 mouse at 0.2 mg/day, sc for 5 days assessed after 2 days of last treatment; format: functional, organism-based
[6] = tested on: Clostridioides difficile; test: Antimicrobial activity against nonepidemic Clostridium difficile ATCC 9689 by broth dilution method; format: functional
[7] = tested on: Clostridioides difficile; test: Increase in toxin level in epidemic Clostridium difficile BI6-8-17 infected CF1 mouse at 1.4 mg/day, sc for 4 days assessed after 2 days of last treatment; format: functional, organism-based
[8] = tested on: Clostridioides difficile; test: Antimicrobial activity against nonepidemic Clostridium difficile J29 by broth dilution method; format: functional
[9] = tested on: Clostridioides difficile; test: Inhibition of clindamycin-susceptible epidemic Clostridium difficile NAP1 in CF1 mouse at 0.2 mg/day, sc for 5 days assessed after 2 days of last treatment; format: functional, organism-based
[10] = tested on: Clostridioides difficile; test: Effect on growth of nonepidemic Clostridium difficile J29 in CF1 mouse assessed as increase in bacterial density in cecal content at 1.4 mg/day, sc for 4 days assessed after 2 days of last treatment; format: functional, organism-based
[11] = tested on: Clostridioides difficile; test: Antimicrobial activity against epidemic Clostridium difficile BI6-8-17 by broth dilution method; format: functional
[12] = tested on: Clostridioides difficile; test: Increase in toxin level in epidemic Clostridium difficile BI9 infected CF1 mouse at 1.4 mg/day, sc for 4 days assessed after 2 days of last treatment; format: functional, organism-based
[13] = tested on: Clostridioides difficile; test: Increase in toxin level in nonepidemic Clostridium difficile ATCC 9689 infected in CF1 mouse at 0.2 mg/day, sc for 4 days assessed after 2 days of last treatment; format: functional, organism-based
[14] = tested on: Clostridioides difficile; test: Increase in toxin level in epidemic Clostridium difficile BI6-8-17 infected CF1 mouse at 0.2 mg/day, sc for 4 days assessed after 2 days of last treatment; format: functional, organism-based
[15] = tested on: Clostridioides difficile; test: Effect on growth of epidemic Clostridium difficile BI6-8-17 in CF1 mouse assessed as increase in bacterial density in cecal content at 1.4 mg/day, sc for 4 days assessed after 2 days of last treatment; format: functional, organism-based
[16] = tested on: Clostridioides difficile; test: Increase in toxin level in nonepidemic Clostridium difficile ATCC 9689 infected in CF1 mouse at 2 mg/day, sc for 4 days assessed after 2 days of last treatment; format: functional, organism-based
[17] = tested on: Clostridioides difficile; test: Effect on growth of epidemic Clostridium difficile BI6-8-17 in CF1 mouse assessed as increase in bacterial density in cecal content at 2 mg/day, sc for 4 days assessed after 2 days of last treatment; format: functional, organism-based
[18] = tested on: Clostridioides difficile; test: Antimicrobial activity against fluoroquinolone-resistant epidemic Clostridium difficile NAP1 by broth dilution method; format: functional
[19] = tested on: Clostridioides difficile; test: Effect on growth of epidemic Clostridium difficile BI9 in CF1 mouse assessed as increase in bacterial density in cecal content at 2 mg/day, sc for 4 days assessed after 2 days of last treatment; format: functional, organism-based
[20] = tested on: Clostridioides difficile; test: Increase in toxin level in epidemic Clostridium difficile BI9 infected CF1 mouse at 0.2 mg/day, sc for 4 days assessed after 2 days of last treatment; format: functional, organism-based
[21] = tested on: Clostridioides difficile; test: Antimicrobial activity against epidemic Clostridium difficile BI9 by broth dilution method; format: functional
[22] = tested on: Clostridioides difficile; test: Inhibition of clindamycin-susceptible epidemic Clostridium difficile NAP1 in CF1 mouse at 0.2 mg/day, sc for 5 days; format: functional, organism-based
[23] = tested on: Clostridioides difficile; test: Increase in toxin level in nonepidemic Clostridium difficile J29 infected CF1 mouse at 2 mg/day, sc for 4 days assessed after 2 days of last treatment; format: functional, organism-based
[24] = tested on: Clostridioides difficile; test: Antimicrobial activity against fluoroquinolone-susceptible nonepidemic Clostridium difficile strain6 by broth dilution method; format: functional
[25] = tested on: Clostridioides difficile; test: Effect on growth of nonepidemic Clostridium difficile J29 in CF1 mouse assessed as increase in bacterial density in cecal content at 2 mg/day, sc for 4 days assessed after 2 days of last treatment; format: functional, organism-based
[26] = tested on: Clostridioides difficile; test: Effect on growth of epidemic Clostridium difficile BI9 in CF1 mouse assessed as increase in bacterial density in cecal content at 1.4 mg/day, sc for 4 days assessed after 2 days of last treatment; format: functional, organism-based
[27] = tested on: Clostridioides difficile; test: Increase in toxin level in nonepidemic Clostridium difficile J29 infected CF1 mouse at 1.4 mg/day, sc for 4 days assessed after 2 days of last treatment; format: functional, organism-based
[28] = tested on: Clostridioides difficile; test: Effect on growth of nonepidemic Clostridium difficile ATCC 9689 in CF1 mouse assessed as increase in bacterial density in cecal content at 2 mg/day, sc for 4 days assessed after 2 days of last treatment; format: functional, organism-based
[29] = tested on: Clostridioides difficile; test: Increase in toxin level in nonepidemic Clostridium difficile J29 infected CF1 mouse at 0.2 mg/day, sc for 4 days assessed after 2 days of last treatment; format: functional, organism-based
[30] = tested on: Clostridioides difficile; test: Increase in toxin level in epidemic Clostridium difficile BI6-8-17 infected CF1 mouse at 2 mg/day, sc for 4 days assessed after 2 days of last treatment; format: functional, organism-based
[31] = Drug level in Clostridium difficile infected CF1 mouse stool at 0.2 mg/day for 4 days; format: ADME; conditions: read-out: Drug uptake
[32] = tested on: Clostridioides difficile; test: Effect on growth of epidemic Clostridium difficile BI9 in CF1 mouse assessed as increase in bacterial density in cecal content at 0.4 mg/day, sc for 4 days assessed after 2 days of last treatment; format: functional, organism-based
[33] = Drug level in Clostridium difficile infected CF1 mouse stool at 0.375 mg/day for 4 days; format: ADME; conditions: read-out: Drug uptake
[34] = tested on: Clostridioides difficile; test: Effect on growth of fluoroquinolone-susceptible nonepidemic Clostridium difficile strain6 in CF1 mouse assessed as increase in bacterial density in cecal content at dosed sc for 5 days; format: functional, organism-based

SMILES	Activity [1]	Activity [3]	Activity [4]	MIC [6]	Activity [7]	MIC [8]	Activity [10]	MIC [11]	Activity [12]	Activity [13]	Activity [14]	Activity [15]	Activity [16]	MIC [18]	Activity [20]	MIC [21]	Activity [23]	MIC [24]	Activity [27]	Activity [29]	other results
CCC[C@@H]1C[C@@H](C(=O)N[C@@H]([C@H]2O[C@H](SC)[C@H](O)[C@@H](O)[C@H]2O)[C@H](C)Cl)N(C)C1 [CLINDAMYCIN]	Active	Active	Active	> 256 mg/L	Active	> 256 mg/L	Active	> 256 mg/L	Active	Active	Active	Active	Active	2 mg/L (≈ 4.71 µM)	Active	> 256 mg/L	Active	2 mg/L (≈ 4.71 µM)	Active	Active	Activity [2]: Active; Activity [5]: inactive; Activity [9]: inactive; Activity [17]: Active; Activity [19]: Active; Activity [22]: Active; Activity [25]: Active; Activity [26]: Active; Activity [28]: Active
COc1c(N2CCNC(C)C2)c(F)cc2c(=O)c(C(=O)O)cn(C3CC3)c12 (stereo not drawn) [GATIFLOXACIN]	Active	Active	–	< 2 mg/L	Active	32 mg/L (≈ 85.2 µM)	–	32 mg/L (≈ 85.2 µM)	Active	Active	Active	–	Active	256 mg/L (≈ 682 µM)	Active	64 mg/L (≈ 170 µM)	Active	4 mg/L (≈ 10.7 µM)	Active	Active	Activity [30]: Active; concentration at 96 h [31]: 76600 ng/g; Activity [32]: Active
C[C@H]1COc2c(N3CCN(C)CC3)c(F)cc3c(=O)c(C(=O)O)cn1c23.C[C@H]1COc2c(N3CCN(C)CC3)c(F)cc3c(=O)c(C(=O)O)cn1c23.O [LEVOFLOXACIN]	–	–	–	8 mg/L	–	256 mg/L	–	> 256 mg/L	–	–	–	–	–	> 256 mg/L	–	256 mg/L	–	8 mg/L	–	–	concentration at 96 h [33]: 58100 ng/g
CO/N=C(\C(=O)N[C@@H]1C(=O)N2C(C(=O)O)=C(CSc3nc(=O)c(O)nn3C)CS[C@H]12)c1csc(N)n1 [CEFTRIAXONE]	Active	Active	Active	32 mg/L (≈ 57.7 µM)	Active	64 mg/L (≈ 115 µM)	Active	32 mg/L (≈ 57.7 µM)	Active	Active	Active	Active	Active	16 mg/L (≈ 28.9 µM)	Active	32 mg/L (≈ 57.7 µM)	Active	32 mg/L (≈ 57.7 µM)	Active	Active	Activity [30]: Active; Activity [17]: Active; Activity [19]: Active; Activity [34]: Active; Activity [25]: Active; Activity [26]: Active; Activity [28]: Active
